Entries after “also recorded” stand apart in the source; their conditions may differ. Square brackets hold non-standard residues; d marks the D form. Peptide text beside a SMILES is read from it. * marks the point of attachment. NH(4-amidinobenzyl) = N=C(N)c1ccc(CN*)cc1; Tle = CC(C)(C)[C@H](N)C(=O)O; PhAc = O=C(Cc1ccccc1)*
Legend:
[1] = tested on: Semliki Forest virus (SFV); experiment: Semliki Forest virus replication in BHK-21 cells, titers by plaque assay; type: cell-based; conditions: for reduction of SFV virus titer: 25 μM inhibitor, MOI 0.01, plaque assay 24 h post-infection
[2] = tested on: E3-E2 (p62) cleavage; experiment: Western blot of E3-E2; type: cell-based, Semliki Forest virus; conditions: 25 μM inhibitor, BHK-21 cells, SFV MOI 10, 8 h post-infection
[3] = tested on: chikungunya virus (CHIKV); experiment: Chikungunya virus replication in BHK-21 cells, titers by plaque assay; type: cell-based; conditions: 25 μM inhibitor, MOI 0.1, plaque assay 24 h post-infection
[4] = molecular target: recombinant soluble human furin (Homo sapiens, UniProt P09958); experiment: Enzyme kinetic measurements with recombinant soluble human furin; type: biochemical; conditions: for Ki: Furin Ki, as given in the text in nM; for fold improved Ki (inhibition constant) versus parent analogue: 20 versus 18 (P3 Val to Tle), 21 and 22 versus the P2 Lys analogues
[5] = tested on: Pseudomonas aeruginosa exotoxin A; conditions: living rodents ref 8; cited from earlier work
[6] = tested on: anthrax toxin; conditions: living rodents ref 8; cited from earlier work

Chain of recombinant soluble human furin (P09958 108-715 limits assumed): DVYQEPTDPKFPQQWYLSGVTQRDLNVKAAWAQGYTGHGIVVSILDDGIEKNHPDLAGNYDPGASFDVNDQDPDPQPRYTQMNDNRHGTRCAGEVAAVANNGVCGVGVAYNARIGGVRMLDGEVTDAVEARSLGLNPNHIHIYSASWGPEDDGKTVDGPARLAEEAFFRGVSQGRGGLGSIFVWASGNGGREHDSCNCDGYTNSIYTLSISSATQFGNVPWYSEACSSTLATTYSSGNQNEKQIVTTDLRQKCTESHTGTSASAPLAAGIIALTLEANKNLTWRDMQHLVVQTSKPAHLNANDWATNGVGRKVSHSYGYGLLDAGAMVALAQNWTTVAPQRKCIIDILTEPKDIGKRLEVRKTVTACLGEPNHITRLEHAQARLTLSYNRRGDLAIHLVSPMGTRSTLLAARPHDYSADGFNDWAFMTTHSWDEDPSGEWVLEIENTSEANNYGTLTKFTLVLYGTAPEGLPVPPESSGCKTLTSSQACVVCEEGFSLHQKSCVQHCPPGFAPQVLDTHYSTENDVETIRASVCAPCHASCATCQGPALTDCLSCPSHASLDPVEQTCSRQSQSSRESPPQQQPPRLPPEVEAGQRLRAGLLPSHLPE

Compound	Ki [4]	fold improved Ki (inhibition constant) versus parent analogue [4]	other results
CC(C)[C@H](NC(=O)[C@H](CCCNC(=N)N)NC(=O)[C@H](CCCNC(=N)N)NC(=O)[C@H](CCCNC(=N)N)NC(=O)Cc1ccccc1)C(=O)N[C@@H](CCCNC(=N)N)C(=O)NCc1ccc(C(=N)N)cc1 [Compound 5, Phac-Arg-Arg-Arg-Val-Arg-4-Amba] (PhAc-RRRVR-{NH(4-amidinobenzyl)})	–	–	reduction of SFV virus titer [1]: less than one order of magnitude
CC(C)[C@H](NC(=O)[C@H](CCCNC(=N)N)NC(=O)[C@H](CCCNC(=N)N)NC(=O)[C@H](N)CCCNC(=N)N)C(=O)N[C@@H](CCCNC(=N)N)C(=O)NCc1ccc(C(=N)N)cc1 [Compound 9, H-DArg-Arg-Arg-Val-Arg-4-Amba] (H-[dR]RRVR-{NH(4-amidinobenzyl)})	–	–	reduction of SFV virus titer [1]: less than one order of magnitude; also recorded: strongly reduced titers; concentration dependence of inhibition of SFV replication ([1]; MOI 0.01, 24 h post-infection (Figure 4)): concentration-dependent inhibition of SFV replication; inhibition of E3-E2 (p62) cleavage [2]: Inhibition of E3-E2 (p62) cleavage; reduction of CHIKV virus titer [3]: strongly reduced titers
CC(=O)N[C@@H](CC(C)C)C(=O)N[C@@H](CC(C)C)C(=O)N[C@@H](CC(C)C)C(=O)N[C@@H](CC(C)C)C(=O)N[C@@H](CCCN=C(N)N)C(=O)N[C@H](C(=O)N[C@@H](CCCCN)C(=O)NCc1ccc(C(=N)N)cc1)C(C)C [Compound 18, Ac-Leu-Leu-Leu-Leu-Arg-Val-Lys-4-Amba, reference compound] (Ac-LLLLRVK-{NH(4-amidinobenzyl)})	~0.5 nM	–	–
CC(=O)N[C@H](CC(C)C)C(=O)N[C@@H](CC(C)C)C(=O)N[C@@H](CC(C)C)C(=O)N[C@@H](CC(C)C)C(=O)N[C@@H](CCCNC(=N)N)C(=O)N[C@H](C(=O)N[C@@H](CCCCN)C(=O)NCc1ccc(C(=N)N)cc1)C(C)C [Compound 19, Ac-DLeu-Leu-Leu-Leu-Arg-Val-Lys-4-Amba, reference compound] (Ac-[dL]LLLRVK-{NH(4-amidinobenzyl)})	~0.5 nM	–	–
CC(=O)N[C@@H](CC(C)C)C(=O)N[C@@H](CC(C)C)C(=O)N[C@@H](CC(C)C)C(=O)N[C@@H](CC(C)C)C(=O)N[C@@H](CCCNC(=N)N)C(=O)N[C@H](C(=O)N[C@@H](CCCCN)C(=O)NCc1ccc(C(=N)N)cc1)C(C)(C)C [Compound 20, Ac-Leu-Leu-Leu-Leu-Arg-Tle-Lys-4-Amba] (Ac-LLLLR[Tle]K-{NH(4-amidinobenzyl)})	–	2.5 fold	–
CC(=O)N[C@@H](CC(C)C)C(=O)N[C@@H](CC(C)C)C(=O)N[C@@H](CC(C)C)C(=O)N[C@@H](CC(C)C)C(=O)N[C@@H](CCCNC(=N)N)C(=O)N[C@H](C(=O)N[C@@H](CCCNC(=N)N)C(=O)NCc1ccc(C(=N)N)cc1)C(C)C [Compound 21, Ac-Leu-Leu-Leu-Leu-Arg-Val-Arg-4-Amba] (Ac-LLLLRVR-{NH(4-amidinobenzyl)})	–	~ 2 fold	–
CC(=O)N[C@@H](CC(C)C)C(=O)N[C@@H](CC(C)C)C(=O)N[C@@H](CC(C)C)C(=O)N[C@@H](CC(C)C)C(=O)N[C@@H](CCCNC(=N)N)C(=O)N[C@H](C(=O)N[C@@H](CCCNC(=N)N)C(=O)NCc1ccc(C(=N)N)cc1)C(C)(C)C [Compound 22, Ac-Leu-Leu-Leu-Leu-Arg-Tle-Arg-4-Amba] (Ac-LLLLR[Tle]R-{NH(4-amidinobenzyl)})	–	~ 2 fold	–
CC(C)[C@H](NC(=O)Cc1cccc(CN)c1)C(=O)N[C@@H](CCCNC(=N)N)C(=O)NCc1ccc(C(=N)N)cc1 [Compound 23, 3-AMe-Phac-Val-Arg-4-Amba]	48.2 nM	–	–
CC(C)[C@H](NC(=O)Cc1ccc(CN)cc1)C(=O)N[C@@H](CCCNC(=N)N)C(=O)NCc1ccc(C(=N)N)cc1 [Compound 24, 4-AMe-Phac-Val-Arg-4-Amba]	37.8 nM	–	–
hexa-D-arginine	–	–	protective effect against Pseudomonas aeruginosa exotoxin A [5]: protective effect; protective effect against anthrax toxin [6]: protective effect

Reference: article PMC5572662 (ChemMedChem, 2017)
